Laboratory results taken from patent US6737383B1, “Herbicidal oxadiazolidines” (priority 1999, dated 2004).

Key:
rape = test: Test B pre/postemergence rape; format: in vivo, Brassica napus
In short: (§1)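 Herbicidal effect was estimated by eye on a ten-point control scale after plants spent twelve to sixteen days in a greenhouse following soil or foliar treatment. Foliar sprays targeted plants at one to four leaves; all doses were formulated in a non-phytotoxic solvent with surfactant.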

duck salad = test: Test B flood test duck salad; format: in vivo, Heteranthera limosa
In short: (§2)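 Each value is a visual injury score relative to controls, with 10 meaning complete control and 0 no effect. Evaluation took place twelve to sixteen days after the 2-leaf-stage plants were treated and kept in the greenhouse.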

cocklebur = test: Test B pre/postemergence cocklebur; format: in vivo, Xanthium strumarium
In short: as §1

surinam grass = test: Test B pre/postemergence surinam grass; format: in vivo, Brachiaria decumbens
In short: as §1

rice = test: Test B flood test rice; format: in vivo, Oryza sativa
In short: as §2

blackgrass = test: Test B pre/postemergence blackgrass; format: in vivo, Alopecurus myosuroides
In short: as §1

bedstraw = test: Test B pre/postemergence bedstraw; format: in vivo, Galium aparine
In short: as §1

soybean = test: Test B pre/postemergence soybean; format: in vivo, Glycine max
In short: as §1

bamyardgrass = test: Test B flood test barnyardgrass; format: in vivo, Echinochloa crus-galli
In short: as §2

velvetleaf = test: Test B pre/postemergence velvetleaf; format: in vivo, Abutilon theophrasti
In short: as §1

wild oat = test: Test B pre/postemergence wild oat; format: in vivo, Avena fatua
In short: as §1

wheat = test: Test B pre/postemergence wheat; format: in vivo, Triticum aestivum
In short: as §1

corn = test: Test B pre/postemergence corn; format: in vivo, Zea mays
In short: as §1

giant foxtail = test: Test B pre/postemergence giant foxtail; format: in vivo, Setaria faberii
In short: as §1

crabgrass = test: Test B pre/postemergence crabgrass; format: in vivo, Digitaria sanguinalis
In short: as §1

morningglory = test: Test B pre/postemergence morningglory; format: in vivo, Ipomoea hederacea
In short: as §1

smallflower flatsedge = test: Test B flood test smallflower flatsedge; format: in vivo, Cyperus difformis
In short: as §2

purple nutsedge = test: Test B pre/postemergence purple nutsedge; format: in vivo, Cyperus rotundus
In short: as §1

pigweed = test: Test B pre/postemergence pigweed; format: in vivo, Amaranthus retroflexus
In short: as §1

sugar beet = test: Test B pre/postemergence sugar beet; format: in vivo, Beta vulgaris
In short: as §1

[1] = Preemergence, Rate 62 g/ha, scale of 0 to 10 where 0 is no effect and 10 is complete control
[2] = Preemergence, Rate 250 g/ha, scale of 0 to 10 where 0 is no effect and 10 is complete control
[3] = Preemergence, Rate 500 g/ha, scale of 0 to 10 where 0 is no effect and 10 is complete control
[4] = Rate 125 g/ha, Preemergence, scale of 0 to 10 where 0 is no effect and 10 is complete control
[5] = Rate 500 g/ha, Postemergence, scale 0 to 10, 0 no effect, 10 complete control
[6] = Rate 62 g/ha, headed Pre-emergence (flood test species), scale 0 to 10 (0 no effect, 10 complete control)
[7] = Rate 125 g/ha, Pre-emergence, flood test species, scale 0 to 10 where 0 is no effect and 10 is complete control
[8] = Rate 250 g/ha, Pre-emergence, flood-test species, scale 0 to 10, 0 is no effect, 10 is complete control
[9] = Rate 500 g/ha, Pre-emergence, flood test species, scale 0 to 10 (0 no effect, 10 complete control)
[10] = Rate 62 g/ha, Postemergence, scale of 0 to 10 where 0 is no effect and 10 is complete control
[11] = Rate 125 g/ha, Postemergence, scale 0 to 10

For CC(C)N(C(=O)n1oc(=O)n(CC(=O)OC(C)(C)C)c1=O)c1ccc(F)cc1 [Compound 265], the “Rape plant response rating” value (rape; [1]) was 0, the “Rape plant response rating” value (rape; [2]) was 0 and the “Plant response rating, Rape” value (rape; [3]) was 0. The “Rape plant response rating” value (rape; [4]) was 0, the “Plant response rating (0 to 10; 0 is no effect, 10 is complete control), Rape” value (rape; Rate 250 g/ha, Postemergence) was 1 and the “Rape plant response rating” value (rape; [5]) was 3. The “Ducksalad plant response rating” value (duck salad; [6]) was 0, the “Ducksalad plant response rating” value (duck salad; [7]) was 0 and the “Ducksalad plant response rating” value (duck salad; [8]) was 0. For the same compound, the “Ducksalad plant response rating” value (duck salad; [9]) was 0, the “Cocklebur plant response rating” value (cocklebur; [1]) was 0 and the “Cocklebur plant response rating” value (cocklebur; [2]) was 0. For the same compound, the “Cocklebur plant response rating” value (cocklebur; [10]) was 0, the “Cocklebur plant response rating” value (cocklebur; [11]) was 0 and the “Cocklebur plant response rating” value (cocklebur; [4]) was 0. For the same compound, the “Plant response rating (0 to 10; 0 is no effect, 10 is complete control), Cocklebur” value (cocklebur; Rate 250 g/ha, Postemergence) was 0, the “Cocklebur plant response rating” value (cocklebur; [5]) was 0 and the “B. signalgrass plant response rating” value (surinam grass; [1]) was 0. The “B. signalgrass plant response rating” value (surinam grass; [2]) was 0, the “Plant response rating, B. signalgrass” value (surinam grass; [3]) was 4 and the “B. signalgrass plant response rating” value (surinam grass; [10]) was 0. The “B. signalgrass plant response rating” value (surinam grass; Rate 125 g/ha, Postemergence, scale 0 (no effect) to 10 (complete control)) was 0, the “B. signalgrass plant response rating” value (surinam grass; [4]) was 0 and the “Plant response rating (0 to 10; 0 is no effect, 10 is complete control), B. signalgrass” value (surinam grass; Rate 250 g/ha, Postemergence) was 0. For the same compound, the “B. signalgrass plant response rating” value (surinam grass; [5]) was 0, the “Rice plant response rating” value (rice; [6]) was 0 and the “Rice plant response rating” value (rice; [7]) was 0. The “Rice plant response rating” value (rice; [8]) was 0, the “Rice plant response rating” value (rice; [9]) was 0 and the “Blackgrass plant response rating” value (blackgrass; [1]) was 0. For the same compound, the “Blackgrass plant response rating” value (blackgrass; [2]) was 0, the “Blackgrass plant response rating” value (blackgrass; [10]) was 4 and the “Blackgrass plant response rating” value (blackgrass; [11]) was 4. For the same compound, the “Plant response rating (0 to 10; 0 is no effect, 10 is complete control), Blackgrass” value (blackgrass; Rate 250 g/ha, Postemergence) was 5, the “Blackgrass plant response rating” value (blackgrass; [5]) was 7 and the “Bedstraw plant response rating” value (bedstraw; [1]) was 0. For the same compound, the “Bedstraw plant response rating” value (bedstraw; [2]) was 0, the “Plant response rating, Bedstraw” value (bedstraw; [3]) was 0 and the “Bedstraw plant response rating” value (bedstraw; [10]) was 0. For the same compound, the “Bedstraw plant response rating” value (bedstraw; [11]) was 2, the “Bedstraw plant response rating” value (bedstraw; [4]) was 0 and the “Plant response rating (0 to 10; 0 is no effect, 10 is complete control), Bedstraw” value (bedstraw; Rate 250 g/ha, Postemergence) was 3. The “Bedstraw plant response rating” value (bedstraw; [5]) was 8, the “Soybean plant response rating” value (soybean; [1]) was 0 and the “Soybean plant response rating” value (soybean; [2]) was 0. The “Plant response rating, Soybean” value (soybean; [3]) was 0, the “Soybean plant response rating” value (soybean; [4]) was 0 and the “Soybean plant response rating” value (soybean; [5]) was 4. For the same compound, the “Barnyardgrass plant response rating” value (bamyardgrass; [6]) was 0, the “Barnyardgrass plant response rating” value (bamyardgrass; [7]) was 0 and the “Barnyardgrass plant response rating” value (bamyardgrass; [8]) was 0. For the same compound, the “Barnyardgrass plant response rating” value (bamyardgrass; [9]) was 0, the “Velvetleaf plant response rating” value (velvetleaf; [1]) was 0 and the “Velvetleaf plant response rating” value (velvetleaf; [2]) was 0. For the same compound, the “Plant response rating, Velvetleaf” value (velvetleaf; [3]) was 0, the “Velvetleaf plant response rating” value (velvetleaf; [4]) was 0 and the “Velvetleaf plant response rating” value (velvetleaf; [5]) was 3. For the same compound, the “Wild oats plant response rating” value (wild oat; [1]) was 0, the “Wild oats plant response rating” value (wild oat; [2]) was 2 and the “Plant response rating, Wild oats” value (wild oat; [3]) was 5. For the same compound, the “Wild oats plant response rating” value (wild oat; [4]) was 0, the “Wild oats plant response rating” value (wild oat; [5]) was 0 and the “Wheat plant response rating” value (wheat; [1]) was 0. For the same compound, the “Wheat plant response rating” value (wheat; [2]) was 0, the “Plant response rating, Wheat” value (wheat; [3]) was 1 and the “Wheat plant response rating” value (wheat; [4]) was 0. For the same compound, the “Wheat plant response rating” value (wheat; [5]) was 0, the “Corn plant response rating” value (corn; [1]) was 0 and the “Corn plant response rating” value (corn; [2]) was 0. The “Plant response rating, Corn” value (corn; [3]) was 0, the “Corn plant response rating” value (corn; [10]) was 0 and the “Corn plant response rating” value (corn; [11]) was 0. For the same compound, the “Corn plant response rating” value (corn; [4]) was 0, the “Plant response rating (0 to 10; 0 is no effect, 10 is complete control), Corn” value (corn; Rate 250 g/ha, Postemergence) was 0 and the “Corn plant response rating” value (corn; [5]) was 0. For the same compound, the “Giant foxtail plant response rating” value (giant foxtail; [1]) was 6, the “Giant foxtail plant response rating” value (giant foxtail; [2]) was 8 and the “Plant response rating, Giant foxtail” value (giant foxtail; [3]) was 10. For the same compound, the “Giant foxtail plant response rating” value (giant foxtail; [4]) was 8, the “Plant response rating (0 to 10; 0 is no effect, 10 is complete control), Giant foxtail” value (giant foxtail; Rate 250 g/ha, Postemergence) was 2 and the “Giant foxtail plant response rating” value (giant foxtail; [5]) was 2. For the same compound, the “Crabgrass plant response rating” value (crabgrass; [1]) was 1, the “Crabgrass plant response rating” value (crabgrass; [2]) was 2 and the “Plant response rating, Crabgrass” value (crabgrass; [3]) was 6. For the same compound, the “Crabgrass plant response rating” value (crabgrass; [4]) was 2, the “Plant response rating (0 to 10; 0 is no effect, 10 is complete control), Crabgrass” value (crabgrass; Rate 250 g/ha, Postemergence) was 2 and the “Crabgrass plant response rating” value (crabgrass; [5]) was 3. The “Morningglory plant response rating” value (morningglory; [1]) was 0, the “Morningglory plant response rating” value (morningglory; [2]) was 0 and the “Plant response rating, Morningglory” value (morningglory; [3]) was 0. For the same compound, the “Morningglory plant response rating” value (morningglory; [4]) was 0, the “Plant response rating (0 to 10; 0 is no effect, 10 is complete control), Morningglory” value (morningglory; Rate 250 g/ha, Postemergence) was 6 and the “Morningglory plant response rating” value (morningglory; [5]) was 8. The “S. Flatsedge plant response rating” value (smallflower flatsedge; [6]) was 0, the “S. Flatsedge plant response rating” value (smallflower flatsedge; [7]) was 0 and the “S. Flatsedge plant response rating” value (smallflower flatsedge; [8]) was 0. For the same compound, the “S. Flatsedge plant response rating” value (smallflower flatsedge; [9]) was 0, the “Nutsedge plant response rating” value (purple nutsedge; [1]) was 0 and the “Nutsedge plant response rating” value (purple nutsedge; [2]) was 0. The “Plant response rating, Nutsedge” value (purple nutsedge; [3]) was 0, the “Plant response rating (0 to 10; 0 is no effect, 10 is complete control), Nutsedge” value (purple nutsedge; Rate 250 g/ha, Postemergence) was 0 and the “Nutsedge plant response rating” value (purple nutsedge; [5]) was 0. For the same compound, the “Redroot pigweed plant response rating” value (pigweed; [1]) was 0, the “Redroot pigweed plant response rating” value (pigweed; [2]) was 0 and the “Plant response rating, Redroot pigweed” value (pigweed; [3]) was 0. The “Redroot pigweed plant response rating” value (pigweed; [4]) was 0, the “Plant response rating (0 to 10; 0 is no effect, 10 is complete control), Redroot pigweed” value (pigweed; Rate 250 g/ha, Postemergence) was 3 and the “Redroot pigweed plant response rating” value (pigweed; [5]) was 4. The “Sugarbeets plant response rating” value (sugar beet; [1]) was 0, the “Sugarbeets plant response rating” value (sugar beet; [2]) was 0 and the “Plant response rating, Sugarbeets” value (sugar beet; [3]) was 0. For the same compound, the “Sugarbeets plant response rating” value (sugar beet; [4]) was 0 and the “Sugarbeets plant response rating” value (sugar beet; [5]) was 3.
